Test results reported in patent US7314625B2 (priority 2000, dated 2008).

Test system: P. aeruginosa PAK strain
Format: cell-based

| Substance | reduction of adherence to A549 cells |
| --- | --- |
| acetyl-DEQFIPK-NH2 (Ac-DEQFIPK-NH2) [core pilin peptide] | approximately 50% |
| acetyl-KCTSDQDEQFLPKGCSK-NH2 (Ac-KCTSDQDEQFLPKGCSK-NH2; cysteine pairing not given here) [long pilin peptide] | approximately 50% |
| acetyl-QIDPEFK-NH2 (Ac-QIDPEFK-NH2) [scrambled peptide] | did not interfere with adherence |
